Data as given in paper PMC8322070, “A novel orally active HDAC6 inhibitor T-518 shows a therapeutic potential for Alzheimer’s disease and tauopathy in mice” (Scientific Reports, 2021).

Tests used:
class I HDACs = test: HDAC selectivity panel (Reaction Biology Corporation), class I; assay type: biochemical; conditions: heat map Fig. 2A
Procedure: Recombinant HDAC6, HDAC7, HDAC1 were obtained from SignalChem Pharmaceutical Inc. (Richmond, BC, Canada), and recombinant human HDAC4 was prepared at Takeda pharmaceutical company. One μL of T-518 diluted with DMSO was added to 75 μL of assay buffer (24 mM Tris–HCl (pH 7.5), 135 mM NaCl, 0.35 mM KCl, 1 mM MgCl2, 0.01% Tween 20, 0.6 mM GSH) in 384 well plates. Two μL of diluted compounds were added to 384 well plates and 2 μL of recombinant HDAC enzymes was added and then centrifuged at 1000 rpm for 10 s. The final concentrations of each HDAC enzyme were as follows, human HDAC1, 170 pM; human HDAC6, […]; human HDAC4, 68 pM; human HDAC7, 13 pM. After incubation for 60 min at room temperature, 4 μL of HDAC-Glo reagent [HDAC-Glo I/II (Promega) for HDAC6 and HDAC1, HDAC-Glo class IIa (Promega) for HDAC4 and HDAC7] was added to start the reaction. After incubation for 20 min at room temperature, the luminescence was measured by Envision plate reader (PerkinElmer, Waltham, MA, USA). For experiments under the condition of 0 min preincubation, 4 μL of HDAC-Glo reagent was added at first to the 384 well plates including diluted compounds. […] After centrifugation at 1000 rpm for 10 s. and then incubation for 20 min at room temperature, the luminescence was measured by Envision. […] The inhibitory activity of T-518 was expressed as the value of IC50. […]

class IIa HDACs = test: HDAC selectivity panel (Reaction Biology Corporation), class IIa; assay type: biochemical; conditions: heat map Fig. 2A
Procedure: Recombinant HDAC6, HDAC7, HDAC1 were obtained from SignalChem Pharmaceutical Inc. (Richmond, BC, Canada), and recombinant human HDAC4 was prepared at Takeda pharmaceutical company. One μL of T-518 diluted with DMSO was added to 75 μL of assay buffer (24 mM Tris–HCl (pH 7.5), 135 mM NaCl, 0.35 mM KCl, 1 mM MgCl2, 0.01% Tween 20, 0.6 mM GSH) in 384 well plates. Two μL of diluted compounds were added to 384 well plates and 2 μL of recombinant HDAC enzymes was added and then centrifuged at 1000 rpm for 10 s. The final concentrations of each HDAC enzyme were as follows, human HDAC1, 170 pM; human HDAC6, […]; human HDAC4, 68 pM; human HDAC7, 13 pM. After incubation for 60 min at room temperature, 4 μL of HDAC-Glo reagent [HDAC-Glo I/II (Promega) for HDAC6 and HDAC1, HDAC-Glo class IIa (Promega) for HDAC4 and HDAC7] was added to start the reaction. After incubation for 20 min at room temperature, the luminescence was measured by Envision plate reader (PerkinElmer, Waltham, MA, USA). For experiments under the condition of 0 min preincubation, 4 μL of HDAC-Glo reagent was added at first to the 384 well plates including diluted compounds. After centrifugation at 1000 rpm for 10 s, 2 μL of HDAC enzyme solution was added. After centrifugation at 1000 rpm for 10 s. and then incubation for 20 min at room temperature, the luminescence was measured by Envision. For determination of inhibitory activity of T-518, the vehicle signal was set as 0% and the signal in the absence of HDAC enzyme was set as 100% inhibition. The inhibitory activity of T-518 was expressed as the value of IC50. The IC50 value and 95% confidence intervals were calculated by XLfit (IDBS, Surrey, UK). The HDAC selectivity panel was conducted by Reaction Biology Corporation (Malvern, PA, USA).

[1] = tested on: Histone H3 acetylation in mouse primary neural cultures; test: Histone H3 acetylation in mouse primary neural culture (Western blotting); assay type: cell-based; conditions: DIV6 mouse primary neural culture, 3 and 30 μM, 24 h
Procedure: (§1) T-518, ACY-738, Ricolinostat, and Tubastatin A were synthesized in Takeda. For in vitro cellular experiments, the compounds were solubilized with DMSO and diluted in the culture medium at the indicated concentrations. For in vivo experiments, the compound was reconstituted in 0.5% methylcellulose and administered orally at the indicated doses. After administration, mouse hippocampus was isolated and homogenized in RIPA extraction buffer (50 mM Tris–HCl, 150 mM NaCl, 1% NP-40, 0.5% sodium deoxycholate, and 0.1% SDS, pH 8.0) supplemented with protease and phosphatase inhibitor cocktail (Thermo Fischer, Waltham, MA, USA). The homogenate was centrifuged at 10,000g for 15 min and the supernatant was taken as the RIPA-soluble fraction.
(§2) Primary cortical neurons were prepared from E14 C57BL/6J mouse embryos (CLIEA Japan, Inc., Tokyo, Japan) using papain-containing Neuron Dissociation Solutions (Fujifilm Wako, Tokyo, Japan). Isolated cells were suspended in Neurobasal Medium containing B-27 (Thermo Fisher) and seeded on poly-D-lysine-coated plates (Corning, NY, USA) under 5% CO2 at 37 °C for 6 days in vitro (DIV) prior to evaluation of HDAC6 inhibitors. Cells were treated with HDAC6 inhibitors at the indicated concentrations for 24 h and lysed in RIPA extraction buffer (50 mM Tris–HCl, 150 mM NaCl, 1% NP-40, 0.5% sodium deoxycholate, and 0.1% SDS, pH 8.0) supplemented with protease and phosphatase inhibitor cocktail (Thermo Fisher).
Cell lysate or in vivo protein samples were separated by 10% SDS-PAGE, then electrophoretically transferred to 0.45 μm poly-vinylidene difluoride membranes (Millipore). Membranes were blocked for 1 h in Blocking Reagent (TOYOBO, Osaka, Japan), probed with primary antibodies followed by labeling with HRP-coupled secondary antibodies (Amersham, Piscataway, NJ), and then visualized using chemiluminescence reagent (ECL; Amersham). Images were captured using ImageQuant LAS 4000 (GE healthcare Bio-Sciences, Marlborough, MA, USA). Quantitative densitometric analyses were conducted using ImageQuant TL (GE healthcare Bio-Sciences). The protocol was slightly modified for detection of HDAC6 in cortex. Briefly, cerebral cortex was homogenized in RIPA buffer supplemented with 1 μM microstatin, 1 μM MG115, 40 μM Leupeptin, 100 μM ABSF, and 2 mM sodium orthovanadate, separated by 7.5–15% gradient SDS-PAGE and electrophoretically transferred to 0.45 μm poly-vinylidene difluoride membranes (Millipore). Membranes were blocked for 1 h with ECL Prime Blocking Reagent (Amersham, Piscataway, NJ) prior to immunoblotting, visualization, and densitometry as described above.

[2] = tested on: tubulin acetylation in mouse primary neural cultures; test: Tubulin acetylation in mouse primary neural culture (ELISA); assay type: cell-based; conditions: DIV6 mouse primary neural culture, 0.1–10 μM, 24 h, ELISA
Procedure: as §1, §2
Acetylated α-tubulin and total tubulin levels were measured by sandwich ELISA. Ninety six-well plates (Microlite2+, Thermo) were coated with α-tubulin capture antibody (1:100) by overnight incubation at 4 °C, washed 4 times with PBS'T, treated with blocking buffer (1% bovine serum albumin in PBS'T) at 37 °C for 2 h, and washed another 4 times with PBS’T. Cell or tissues lysate was added to the wells and plates were incubated at 37 °C for 2 h. Plates were then washed 4 times with PBST, incubated with a detection antibody for acetylated tubulin or total α-tubulin diluted in blocking buffer at 37℃ for 1 h, rewashed 4 more times with PBST, incubated with a mouse secondary antibody conjugated to horseradish peroxidase (HRP) for 30 min, wash 4 times again with PBST, and then incubated with chemiluminescent substrate (SuperSignal).

Row | Structure (SMILES) | inhibition of class I HDACs in HDAC panel (class I HDACs) | inhibition of class IIa HDACs in HDAC panel (class IIa HDACs) | effect on Histone H3 acetylation [1] | effect on tubulin acetylation [2]
1 | O=C(CCCCCCNC(=O)c1cnc(N(c2ccccc2)c2ccccc2)nc1)NO [Ricolinostat] | slightly inhibit | slightly inhibit | increase the acetylation of histone H3 | significantly and concentration-dependently elevates tubulin acetylation
2 | CN1CCc2c(c3ccccc3n2Cc2ccc(C(=O)NO)cc2)C1 [Tubastatin A] | – | inhibits | neither T-518 nor Tubastatin A at 3 and 30 μM demonstrates this activity | significantly and concentration-dependently elevates tubulin acetylation
3 | O=C(NO)c1cnc(NC2(c3ccccc3)CC2)nc1 [ACY-738] | slightly inhibit | slightly inhibit | increase the acetylation of histone H3 | significantly and concentration-dependently elevates tubulin acetylation
